Results taken from US20180000725A1, “ORALLY-DISSOLVING FILMS FOR DRUG DELIVERY THROUGH THE ORAL CAVITY” (The Chinese University of Hong Kong, priority 2016, published 2018).
Read-outs that look alike come from different tables or passages of the source.

Experiments:
in vivo = settings: New Zealand Albino, rabbit, po, 1.5 mg/kg
Experimental: (§1) New Zealand Albino rabbits (3.0-4.5 kg) were used in this study. The rabbits were kept at a 12/12 hour light/dark cycle with unlimited food and water supply. […] The rabbits were lightly anesthetized by an intramuscular injection of ketamine and xylazine immediately before dosing. In order to compensate for reduced saliva secretion due to anesthesia, the mouths of the rabbits were wetted with a small amount of distilled water (about 1 mL) before sublingual or buccal administration of the orally dissolving films.
(§2) Blood samples were collected periodically at pre-determined time points for 6 hours.
(§3) The pharmacokinetic studies were conducted by three different routes (i.e. oral, sublingual, and buccal administration), and the data were analyzed non-compartmentally by using WinNonlin (Certara USA, Inc., Princeton, N.J., USA).

[1] = ropinirole, cited from earlier work
[2] = cited from earlier work
[3] = In vivo pharmacokinetic study of ropinirole / ROP-ODF; settings: New Zealand Albino, rabbit, po, 1.5 mg/kg
Experimental: as §1, §2, §3

**Q.** Which AUC(0-inf) (in vivo) does the source give for `CCCN(CCC)CCc1cccc2c1CC(=O)N2` [ropinirole, Ropinirole] here?
**A.** Its AUC(0-inf) is 90.5 ng·h/mL.

**Q.** What about the AUC(0-t) (in vivo) of the same compound?
**A.** Its AUC(0-t) is 65.5 ng·h/mL.

**Q.** What about the Cmax (in vivo) of the same compound?
**A.** The Cmax was 29.9 ± 16.2 ng/mL.

**Q.** And the half-life (in vivo)?
**A.** Its half-life is 2.893 ± 0.0183 h.

**Q.** What about the Tmax ([1]; after oral administration) of the same compound?
**A.** Its Tmax is about 1.5 h.

**Q.** And the “oral dose excreted unchanged” value ([1]; oral)?
**A.** Its value is 10%.

**Q.** What about the “protein binding in the plasma” value [2] of the same compound?
**A.** Its value is 10-39%.

**Q.** And the Tmax [3]?
**A.** The Tmax was 2.38 h.
